Experimental data published in ChEMBL document CHEMBL5096216, “Rational Design, Synthesis, and Biological Evaluation of Novel S1PR2 Antagonists for Reversing 5-FU-Resistance in Colorectal Cancer” (J Med Chem, 2022).
The source made the active and inactive calls. The calls are words filed in the database; no cut-off is given here.

Tests used:
[1] = system: HCT-116; assay: cells; conditions: Homo sapiens, HCT-116, 48 h
Description: Reversal of 5-FU resistance in human HCT-116 cells overexpressing DPD assessed as reduction in 5-Fluorouracil IC50 at 5 uM incubated for 48 hrs (Rvb = 1836.66 +/- 87.95 %)

[2] = system: SW620/5-FU; assay: Antitumor activity against human SW620/5-FU cells xenografted in nude mouse assessed as tumor growth inhibition at 5 mg/kg/day, iv in presence of 5-FU; format: functional; conditions: read-out: TGI
[3] = system: HCT-116; assay: Reversal of 5-FU resistance in human HCT-116 cells overexpressing DPD assessed as fold reduction in 5-Fluorouracil IC50 at 2 uM incubated for 48 hrs; format: functional
[4] = system: SW620/5-FU; assay: Induction of apoptosis in human SW620/5-FU cells assessed as late apoptotic cells at 20 uM incubated for 24 hrs in presence of 5-FU by Annexin-V/PI staining based flow cytometry assay (reference value: 2.97%); format: functional
[5] = system: SW620/5-FU; assay: Induction of apoptosis in human SW620/5-FU cells assessed as early apoptotic cells at 20 uM incubated for 24 hrs by Annexin-V/PI staining based flow cytometry assay (reference value: 2.73%); format: functional
[6] = system: SW620/5-FU; assay: Antitumor activity against human SW620/5-FU cells xenografted in nude mouse assessed as tumor wight at 1 mg/kg/day, iv in presence of 5-FU (reference value: 1.3 +/-0.6 g); format: functional
[7] = system: SW620/5-FU; assay: Induction of apoptosis in human SW620/5-FU cells assessed as viable cells at 20 uM incubated for 24 hrs in presence of 5-FU by Annexin-V/PI staining based flow cytometry assay (reference value: 94.3%); format: functional; conditions: read-out: Activity
[8] = system: NCM460; assay: Cytotoxicity against human NCM460 cells assessed as reduction in cell viability incubated for 48 hrs in presence of 5-FU by MTT assay; format: functional, cell-based; conditions: NCM460, 48 h
[9] = system: Mus musculus; assay: In vivo inhibition of tumor DPD expression in human SW620/5-FU cells xenografted in nude mouse at 1 to 10 mg/kg/day by Western blot analysis; format: functional, organism-based; conditions: dose 1-10 mg/kg/day
[10] = system: SW620/5-FU; assay: Antitumor activity against human SW620/5-FU cells xenografted in nude mouse assessed as tumor volume at 1 mg/kg/day, iv measured on day 1 in presence of 5-FU (reference value: 105 +/- 14 mm3); format: functional; conditions: time 1 day
[11] = system: HT-29; assay: Upregulation of H3K27me3 expression in 5-FU resistant human HT-29 cells incubated for 12 hrs by Western blot analysis; format: functional, cell-based; conditions: dose 2.5-20 µM, DDE = dose-dependent effect
[12] = system: HT-29; assay: Reversal of 5-FU resistance in human HT-29 cells assessed as fold reduction in 5-Fluorouracil IC50 at 2 uM incubated for 48 hrs; format: functional
[13] = system: SW620/5-FU; assay: Antitumor activity against human SW620/5-FU cells xenografted in nude mouse assessed as tumor wight at 10 mg/kg/day, iv in presence of 5-FU (reference value: 1.3 +/- 0.6 g); format: functional
[14] = system: SW620/5-FU; assay: cells; conditions: Homo sapiens, 48 h
[15] = system: SW620/5-FU; assay: Upregulation of H3K27me3 expression in human SW620/5-FU cells incubated for 12 hrs by Western blot analysis; format: functional, cell-based; conditions: dose 2.5-20 µM, DDE = dose-dependent effect
[16] = system: SW620/5-FU; assay: Antiproliferative activity against human SW620/5-FU cells assessed as reduction in cell viability incubated for 48 hrs by MTT assay; format: functional, cell-based
[17] = Metabolic stability in rat liver homogenate assessed as half life at 1 mg/ml incubated for 48 hrs by HPLC analysis; format: ADME, tissue-based
[18] = system: SW620/5-FU; assay: Antitumor activity against human SW620/5-FU cells xenografted in nude mouse assessed as tumor volume at 5 mg/kg/day, iv measured on day 15 in presence of 5-FU (reference value: 1991 +/- 469 mm3); format: functional; conditions: time 15 day
[19] = Toxicity in nude mouse xenografted with human SW620/5-FU cells assessed as morphological changes in kidney at 1 to 10 mg/kg/day, iv by hematoxylin-eosin staining based analysis; format: organism-based; conditions: in vivo, dose 1-10 mg/kg/day
[20] = system: HCT-116; assay: Antiproliferative activity against human HCT-116 cells overexpressing DPD assessed as reduction in cell viability incubated for 48 hrs by MTT assay; format: functional, cell-based; conditions: HCT-116, 48 h
[21] = Induction of intracellular 5-FU accumulation in human SW620/5-FU cells measured after 6 hrs by HPLC analysis (reference value: 4.3 microg/ml); format: functional
[22] = system: SW620/5-FU; assay: Induction of apoptosis in human SW620/5-FU cells assessed as necrotic cells at 10 uM incubated for 24 hrs by Annexin-V/PI staining based flow cytometry assay (reference value: 0%); format: functional
[23] = system: SW620/5-FU; assay: Induction of apoptosis in human SW620/5-FU cells assessed as necrotic cells at 20 uM incubated for 24 hrs by Annexin-V/PI staining based flow cytometry assay (reference value: 0%); format: functional
[24] = system: Mus musculus; assay: In vivo inhibition of liver DPD expression in human SW620/5-FU cells xenografted in nude mouse at 1 to 10 mg/kg/day by Western blot analysis; format: functional, organism-based; conditions: dose 1-10 mg/kg/day
[25] = system: HCT-116; assay: cells; conditions: Homo sapiens, HCT-116, 48 h; remark: listed apart in the source
Description: Reversal of 5-FU resistance in human HCT-116 cells overexpressing DPD assessed as reduction in 5-Fluorouracil IC50 at 2 uM incubated for 48 hrs (Rvb = 1836.66 +/- 87.95 %)

[26] = system: SW620/5-FU; assay: Antitumor activity against human SW620/5-FU cells xenografted in nude mouse assessed as tumor wight at 5 mg/kg/day, iv in presence of 5-FU (reference value: 1.3 +/-0.6 g); format: functional
[27] = Metabolic stability in rat liver homogenate assessed as compound remaining at 1 mg/ml measured after 48 hrs by HPLC analysis; format: ADME, tissue-based; conditions: read-out: Stability
[28] = system: SW620/5-FU; assay: Reversal of 5-FU resistance in human SW620/5-FU cells assessed as fold reduction in 5-Fluorouracil IC50 at 2 uM incubated for 48 hrs; format: functional
[29] = system: SW620/5-FU; assay: Induction of apoptosis in human SW620/5-FU cells assessed as viable cells at 10 uM incubated for 24 hrs in presence of 5-FU by Annexin-V/PI staining based flow cytometry assay (reference value: 94.3%); format: functional; conditions: read-out: Activity
[30] = system: SW620/5-FU; assay: Antitumor activity against human SW620/5-FU cells xenografted in nude mouse assessed as tumor volume at 10 mg/kg/day, iv measured on day 1 in presence of 5-FU (reference value: 105 +/- 14 mm3); format: functional; conditions: time 1 day
[31] = system: SW620/5-FU; assay: Induction of apoptosis in human SW620/5-FU cells assessed as late apoptotic cells at 20 uM incubated for 24 hrs by Annexin-V/PI staining based flow cytometry assay (reference value: 2.97%); format: functional
[32] = system: HCT-116; assay: Reversal of 5-FU resistance in human HCT-116 cells overexpressing DPD assessed as fold reduction in 5-Fluorouracil IC50 at 5 uM incubated for 48 hrs; format: functional
[33] = system: SW620/5-FU; assay: Induction of apoptosis in human SW620/5-FU cells assessed as early apoptotic cells at 20 uM incubated for 24 hrs in presence of 5-FU by Annexin-V/PI staining based flow cytometry assay (reference value: 2.73%); format: functional
[34] = system: Mus musculus; assay: In vivo inhibition of tumor DPD expression in human SW620/5-FU cells xenografted in nude mouse at 1 to 10 mg/kg/day by immunohistochemistry analysis; format: functional, organism-based; conditions: dose 1-10 mg/kg/day
[35] = system: SW620/5-FU; assay: Reversal of 5-FU resistance in human SW620/5-FU cells assessed as reduction in cell viability incubated for 48 hrs in presence of 5-FU by MTT assay; format: functional, cell-based

IC50 [1]: 45.1 µM | IC50 [14]: 36.8 µM | IC50 [16]: > 100 µM | half-life at 1 mg/ml [17]: > 48 h | IC50 [20]: > 100 µM | IC50 [25]: 56.4 µM | remaining at 48 h, 1 mg/ml [27]: 68.9% | IC50 [35]: 1.99 µM
SMILES: CCC(CC)CN1CCN(C(=O)Nc2cc(Oc3ccc(F)cc3)cc(Oc3ccc(C(=O)NC)cc3)c2)CC1
inhibition in vivo at 5 mg/kg/day [2]: 66.8% | fold change (FC) [3]: 33 | Activity [4]: 7.14% | Activity [5]: 3.76% | Activity [6]: 0.6 g | viability at 20 µM [7]: 64.2% | IC50 [8]: > 100 µM | inhibition [9]: Active | Activity [10]: 104 mm3 | Activity [11]: Dde | fold change (FC) [12]: 66 | Activity [13]: 0.3 g | Activity [15]: Dde | Activity [18]: 662 mm3 | Activity [19]: Non-Toxic | Activity [21]: 12.2 µg/mL | Activity [22]: 0.042% | Activity [23]: 0.086% | inhibition [24]: Active | Activity [26]: 0.5 g | fold change (FC) [28]: 42 | viability at 10 µM [29]: 87.7% | Activity [30]: 104 mm3 | Activity [31]: 4.01% | fold change (FC) [32]: 41 | Activity [33]: 28.6% | inhibition [34]: Active
